Experimental data as given in ChEMBL document CHEMBL3580644, “Synthesis of piperlongumine analogues and discovery of nuclear factor erythroid 2-related factor 2 (Nrf2) activators as potential neuroprotective agents” (J Med Chem, 2015).
Calls of active or inactive are those of the source. The rule behind the calls is not given here.

Tests used:
[1] = Cytotoxicity against human L02 cells assessed as reduction in cell viability at 100 uM incubated for 24 hrs by MTT assay; type: cell-based; conditions: l02, 24 h
PC-12 [2] = assay: Cytoprotection activity against 6-OHDA-induced cytotoxicity in rat PC12 cells assessed as cell viability at 20 uM pre-incubated for 24 hrs before 6-OHDA exposure for 12 hrs by MTT assay; type: functional, cell-based
[3] = Cytotoxicity against rat PC12 cells assessed as reduction in cell viability at 20 uM incubated for 24 hrs by MTT assay; type: cell-based; conditions: pc-12, 24 h
[4] = Cytotoxicity against rat PC12 cells assessed as reduction in cell viability at 100 uM incubated for 24 hrs by MTT assay; type: cell-based; conditions: pc-12, 24 h
PC-12 [5] = assay: Cytoprotection activity against H2O2-induced cytotoxicity in rat PC12 cells assessed as cell viability at 20 uM pre-incubated for 24 hrs before H2O2 exposure for 12 hrs by MTT assay; type: functional, cell-based
[6] = Cytotoxicity against rat PC12 cells assessed as reduction in cell viability at 20 uM to 100 uM incubated for 24 hrs by MTT assay; type: cell-based; conditions: pc-12, 24 h
[7] = Cytotoxicity against human L02 cells assessed as reduction in cell viability at 20 uM to 100 uM incubated for 24 hrs by MTT assay; type: cell-based; conditions: l02, 24 h
[8] = Antioxidant activity assessed as DPPH radical scavenging activity at 20 uM incubated for 30 mins by spectrophotometry; type: physicochemical; conditions: 0.5 h
[9] = Antioxidant activity assessed as ABTS radical scavenging activity at 20 uM incubated for 30 mins by spectrophotometry; type: physicochemical; conditions: 0.5 h

Activity [8] | Activity [9] | SMILES | Activity [1] | Activity (PC-12 [2]) | Activity [3] | Activity [4] | Activity (PC-12 [5]) | Activity [6] | Activity [7]
 |  | O=C(/C=C/c1ccccc1)N1CCCCCC1=O | Toxic | Active | Non-toxic | Toxic | Active |  | 
 |  | O=C(/C=C/c1ccc([N+](=O)[O-])cc1)N1CCCCCC1=O | Toxic | Active | Non-toxic | Toxic | Active |  | 
 |  | O=C(/C=C/c1ccc(C(F)(F)F)cc1)N1CCCCC1=O | Toxic | Active | Non-toxic | Toxic | Active |  | 
 |  | O=C(/C=C/c1ccc(Br)cc1)N1CCCC1=O | Toxic | Active | Non-toxic | Toxic | Active |  | 
 |  | COc1ccc(/C=C/C(=O)N2CCCCC2=O)cc1 |  | Active | Non-toxic |  | Active | Non-toxic | Non-toxic
 |  | COc1cc(/C=C/C(=O)N2CCC=CC2=O)cc(OC)c1OC [PIPLARTINE] |  |  | Toxic |  |  | Toxic | Toxic
 |  | O=C(/C=C/c1ccccc1)N1CCCCC1=O | Toxic | Active | Non-toxic | Toxic | Active |  | 
Active | Active | O=C(/C=C/c1ccc(O)cc1)N1CCCC1=O |  | Active | Non-toxic |  | Active | Non-toxic | Non-toxic
 |  | O=C(/C=C/c1ccc(Br)cc1)N1CCCCC1=O | Toxic | Active | Non-toxic | Toxic | Active |  | 
 |  | COc1ccc(/C=C/C(=O)N2CCCC2=O)cc1OC |  | Active | Non-toxic |  | Active | Non-toxic | Non-toxic
 |  | COc1cc(/C=C/C(=O)N2CCCC2=O)cc(OC)c1OC |  | Active | Non-toxic |  | Active | Non-toxic | Non-toxic
 |  | O=C(/C=C/c1ccccc1)N1CCCC1=O | Toxic | Active | Non-toxic | Toxic | Active |  | 
 |  | O=C(/C=C/c1ccc([N+](=O)[O-])cc1)N1CCCCC1=O | Toxic | Active | Non-toxic | Toxic | Active |  | 
 |  | COc1cc(/C=C/C(=O)N2CCCCCC2=O)cc(OC)c1OC |  | Active | Non-toxic |  | Active | Non-toxic | Non-toxic
 |  | O=C(/C=C/c1ccc(C(F)(F)F)cc1)N1CCCC1=O | Toxic | Active | Non-toxic | Toxic | Active |  | 
 |  | O=C(/C=C/c1ccc(C(F)(F)F)cc1)N1CCCCCC1=O | Toxic | Active | Non-toxic | Toxic | Active |  | 
 |  | COc1cc(CCC(=O)N2CCCCC2=O)cc(OC)c1OC [TETRAHYDROPIPLARTINE] |  | inactive | Non-toxic |  | inactive | Non-toxic | Non-toxic
